{"source": "patent US5385884A", "about": "“Lipopeptide derivatives” (Merck & Co. Inc., priority 1991, dated 1995)", "key": {"Pneumocystis carinii": {"test_system": "Pneumocystis carinii", "test": "Pneumocystis carinii pneumonia in immunosuppressed rats", "format": "in vivo, Sprague-Dawley rats", "conditions": "intraperitoneally (I.P.) twice daily for four days", "experimental": "In a representative study, the effectiveness of Compound A-la was determined. Sprague-Dawley rats (weighing approximately 250 grams) were immunosuppressed with dexasone in the drinking water (2.0 mg/L) and maintained on a low protein diet for five weeks to induce the development of pneumocystis pneumonia from a latent infection. […] Six rats (weighing approximately 150 grams) were injected twice daily for four days intravenously (I.V.) via the tail vein with Compound A-la in 0.25 ml of vehicle (distilled water). A vehicle control was also carried out. All animals continued to receive dexasone in the drinking water and low protein diet during the treatment period. At the completion of the treatment, all animals were sacrificed, the lungs were removed and processed, and the extent of disease determined by microscopic analysis of stained slides.\nIn a similar experiment, except that the rats were injected intraperitoneally (I.P.) twice daily for four days, the animals were sacrificed, the lungs removed and processed, and the extent of disease determined by microscopic analysis of stained slides."}, "C. albicans": {"test_system": "C. albicans", "test": "Minimum fungicidal concentration, microbroth dilution assay in YNBD", "format": "cell-based", "experimental": "The minimum inhibitory concentrations (MICs) were recorded as the lowest concentrations of drug showing no visible growth.\nAfter recording the MIC, the plates were shaken to resuspend the cells. […] The MFC is defined as the lowest concentration of drug showing no growth or less than 4 colonies per spot."}}}
{"substance": "1-[4-hydroxy-N2-(10,12-dimethyl-1-oxotetradecyl)-ornithine]-4-[3-hydroxy-4' -O-phosphoryl-homotyrosine]-5-[3-hydroxyglutamine]-6-[3-hydroxyproline]echi nocandin B disodium salt [Compound A-2a]", "values": [{"measurement": "ED90 for eliminating P. carinii cysts", "setting": "Pneumocystis carinii", "value": "approximately 0.6 mg/kg"}, {"measurement": "Minimum Fungicidal Concentration", "setting": "C. albicans; C. albicans MY 1028", "value": 2, "unit": "µg/mL"}, {"measurement": "Minimum Fungicidal Concentration", "setting": "C. albicans; C. albicans MY 1208", "value": 2, "unit": "µg/mL"}]}
